Laboratory results as given in publication PMC8500670, “A selective WDR5 degrader inhibits acute myeloid leukemia in patient-derived mouse models” (Science translational medicine, 2021).

Assays:
Test in all cases: biochemical
Parameters in all cases: protein methyltransferase inhibition panel, single concentration, duplicate
NSD2 = target: T1, NSD2 (Homo sapiens, UniProt O96028)
T1 sequence (O96028 1-1365): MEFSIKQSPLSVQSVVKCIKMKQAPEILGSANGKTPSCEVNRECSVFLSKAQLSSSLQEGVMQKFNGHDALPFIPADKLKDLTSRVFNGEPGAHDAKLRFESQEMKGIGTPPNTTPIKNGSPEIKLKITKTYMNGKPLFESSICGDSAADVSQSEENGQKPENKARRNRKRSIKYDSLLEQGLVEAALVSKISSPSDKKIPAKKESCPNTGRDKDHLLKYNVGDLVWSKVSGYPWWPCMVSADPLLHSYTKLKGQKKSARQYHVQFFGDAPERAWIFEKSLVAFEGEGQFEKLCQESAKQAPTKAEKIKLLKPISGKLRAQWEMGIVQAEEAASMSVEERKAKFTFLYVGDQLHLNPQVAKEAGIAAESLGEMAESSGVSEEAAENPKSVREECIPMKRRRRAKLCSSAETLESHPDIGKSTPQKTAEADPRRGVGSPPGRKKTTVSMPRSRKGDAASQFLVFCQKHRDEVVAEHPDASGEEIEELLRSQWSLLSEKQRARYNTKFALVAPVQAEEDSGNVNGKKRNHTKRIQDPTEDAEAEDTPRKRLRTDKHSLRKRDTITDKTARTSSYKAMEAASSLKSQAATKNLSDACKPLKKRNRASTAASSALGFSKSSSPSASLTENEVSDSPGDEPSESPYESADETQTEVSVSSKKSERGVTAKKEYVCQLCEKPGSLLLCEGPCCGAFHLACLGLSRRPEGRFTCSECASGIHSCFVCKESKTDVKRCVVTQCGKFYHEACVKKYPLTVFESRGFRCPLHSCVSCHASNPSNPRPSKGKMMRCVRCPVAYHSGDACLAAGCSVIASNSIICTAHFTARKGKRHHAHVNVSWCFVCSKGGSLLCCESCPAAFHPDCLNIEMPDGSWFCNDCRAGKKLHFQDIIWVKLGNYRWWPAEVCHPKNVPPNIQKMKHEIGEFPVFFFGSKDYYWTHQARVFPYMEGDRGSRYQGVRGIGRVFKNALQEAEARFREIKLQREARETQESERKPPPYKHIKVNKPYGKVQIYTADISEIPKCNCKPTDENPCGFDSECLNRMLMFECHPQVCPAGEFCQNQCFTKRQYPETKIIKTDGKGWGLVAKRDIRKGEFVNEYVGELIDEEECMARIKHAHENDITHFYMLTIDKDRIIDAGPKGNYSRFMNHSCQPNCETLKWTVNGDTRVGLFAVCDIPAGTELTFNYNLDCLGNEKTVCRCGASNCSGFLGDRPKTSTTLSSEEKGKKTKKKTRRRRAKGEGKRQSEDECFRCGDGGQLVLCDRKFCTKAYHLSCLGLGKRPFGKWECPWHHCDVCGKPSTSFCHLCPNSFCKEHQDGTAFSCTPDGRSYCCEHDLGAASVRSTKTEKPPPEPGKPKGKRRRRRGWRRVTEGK
Method: (§1) We next assessed selectivity of MS67 against 22 protein methyltransferases (table S2) and a broad panel of common drug targets including 45 kinases (table S3) and 44 G protein–coupled receptors (GPCR), ion channels, and transporters (table S4). […] We subsequently determined that MS67 had moderate binding affinity (Ki = 1.0 ± 0.8 μM) to Sigma 2 receptor (fig. S10).

PRMT6 = PRMT6 (Homo sapiens, UniProt Q96LA8)
Chain of PRMT6 (Q96LA8 whole entry): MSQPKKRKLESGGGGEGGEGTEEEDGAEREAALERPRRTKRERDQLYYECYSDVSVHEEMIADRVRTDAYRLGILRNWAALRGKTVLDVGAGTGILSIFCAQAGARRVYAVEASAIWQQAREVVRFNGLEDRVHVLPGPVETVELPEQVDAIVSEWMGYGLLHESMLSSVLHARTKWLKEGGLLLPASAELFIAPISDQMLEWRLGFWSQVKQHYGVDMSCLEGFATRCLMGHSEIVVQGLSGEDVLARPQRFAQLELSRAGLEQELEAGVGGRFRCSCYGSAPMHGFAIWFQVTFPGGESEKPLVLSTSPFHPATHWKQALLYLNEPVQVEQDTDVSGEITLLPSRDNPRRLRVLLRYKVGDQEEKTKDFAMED
Method: as §1

SMYD3 = target: T2, SMYD3 (Homo sapiens, UniProt Q9H7B4)
T2 sequence (Q9H7B4 1-428): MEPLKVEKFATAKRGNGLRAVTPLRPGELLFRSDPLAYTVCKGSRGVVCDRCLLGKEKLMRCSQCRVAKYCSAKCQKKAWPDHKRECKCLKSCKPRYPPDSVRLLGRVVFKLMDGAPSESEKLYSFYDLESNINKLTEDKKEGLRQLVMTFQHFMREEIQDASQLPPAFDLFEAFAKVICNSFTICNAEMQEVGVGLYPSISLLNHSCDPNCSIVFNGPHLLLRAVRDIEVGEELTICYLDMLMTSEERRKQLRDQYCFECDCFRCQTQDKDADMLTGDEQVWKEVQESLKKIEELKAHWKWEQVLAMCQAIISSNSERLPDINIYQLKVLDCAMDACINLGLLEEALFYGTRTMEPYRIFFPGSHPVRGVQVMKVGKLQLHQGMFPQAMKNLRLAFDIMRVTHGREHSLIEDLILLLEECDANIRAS
Method: as §1

Measured: inhibition at 10 µM

Cc1ncsc1-c1ccc([C@H](C)NC(=O)[C@@H]2C[C@@H](O)CN2C(=O)[C@@H](NC(=O)CNC(=O)c2ccc(F)c(-c3ccc(N4C[C@@H](C)N(C)[C@@H](C)C4)c(NC(=O)c4c[nH]c(=O)cc4C(F)(F)F)c3)c2)C(C)(C)C)cc1 [MS67]
< 10%: all assays above
